By IC50 is commonly meant the concentration at which inhibition is half-maximal.

The target in test [1] is NAMPT (Homo sapiens (Human), UniProt P43490). The experiment in a line: Biochemical Inhibition Assay (NAMPT enzymatic reaction, NMN quantified by mass spectrometry). The settings on record: recombinant His-tagged NAMPT, 33 nM; 1 μM NAM; read-out: Biochem IC50. The protocol:
Recombinant His-tagged NAMPT was produced in E. coli cells, purified over a Ni column, and further purified over a size-exclusion column by XTAL Biostructures.
The NAMPT enzymatic reactions were carried out in Buffer A (50 mM Hepes pH 7.5, 50 mM NaCl, 5 mM MgCl2, and 1 mM THP) in 96-well V-bottom plates. The compound titrations were performed in a separate dilution plate by serially diluting the compounds in DMSO to make a 100× stock. […] The compound and enzyme mix was incubated for 15 minutes at room temperature, then 10 μL of 10× substrate and co-factors in Buffer A were added to the test well to make a final concentration of 1 μM NAM, 100 μM 5-Phospho-D-ribose 1-diphosphate (PRPP), and 2.5 mM Adenosine 5′-triphosphate (ATP). The reaction was allowed to proceed for 30 minutes at room temperature, then was quenched with the addition of 11 μL of a solution of formic acid and L-Cystathionine to make a final concentration of 1% formic acid and 10 μM L-Cystathionine. Background and signal strength was determined by addition (or non-addition) of a serial dilution of NMN to a pre-quenched enzyme and cofactor mix.
A mass spectrometry-based assay was used to measure the NAMPT reaction product (NMN) and the internal control (L-Cystathionine). NMN and L-Cystathionine were detected using the services of Biocius Lifesciences with the RapidFire system. In short, the NMN and L-Cystathionine are bound to a graphitic carbon cartridge in 0.1% formic acid, eluted in 30% acetonitrile buffer, and injected into a Sciex 4000 mass spectrometer. The components of the sample were ionized with electrospray ionization and the positive ions were detected. […] The fragments are quantified and the analyzed by the following method.
First the NMN signal is normalized to the L-Cystathionine signal by dividing the NMN signal by the L-Cystathionine signal for each well. The signal from the background wells are averaged and subtracted from the test plates.
Wherein x denotes the average signal of the compound treated wells and y denotes the average signal of the DMSO treated wells.
IC50s are Determined Using Excel and this Formula.
Wherein X denotes the compound concentration 1, Y denotes the compound concentration 2, XX denotes the % inhibition at compound concentration 1 (X), and YY denotes the % inhibition at compound concentration 2 (Y).

The test system of test [2] is A2780 cells. The experiment in a line: In-Vitro Cell Proliferation Assay (SRB, 72 hours). The test is classed as cell-based. The settings on record: Homo sapiens, A2780, 72 h, A2780 cells, 72 hours, sulforhodamine B; read-out: A2780 IC50. The protocol:
After overnight incubation at 37° C. and 5% CO2, the compound titrations were performed in a separate dilution plate by serially diluting the compounds in DMSO to make a 1000× stock. The compounds were then further diluted to 10× final concentration in culture media, whereupon 20 μL of each dilution was added to the plated cells with controls (e.g. DMSO and blank) to make a final volume of 200 μL. The final DMSO concentration in each well was 0.1%. The plates were then incubated for 72 hours at 37° C. in a 5% CO2 incubator. The number of viable cells was then assessed using sulforhodamine B (SRB) assay. Cells were fixed at 4° C. for 1 hour with the addition of 50 μL 30% trichloroacetic acid (TCA) to make a final concentration of 6% TCA. The plates were washed four times with H2O and allowed to dry for at least 1 hour, whereupon 100 μL of a 4% SRB in 1% acetic acid solution was added to each well and incubated at room temperature for at least 30 minutes. The plates were then washed three times with 1% acetic acid, dried, and treated with 100 μL of 10 mM Tris-Base solution. The plates were then read in a microplate reader at an absorbance of 570 nm. Background was generated on a separate plate with media only.
First, the signals from the background plate are averaged and then the background was subtracted from the test plates.
wherein x denotes the average signal of the compound-treated cells and y denotes the average signal of the DMSO-treated cells.
wherein X denotes the compound concentration 1, Y denotes the compound concentration 2, XX denotes the % inhibition at compound concentration 1 (X), and YY denotes the % inhibition at compound concentration 2 (Y).

Sequence of NAMPT (P43490 whole entry): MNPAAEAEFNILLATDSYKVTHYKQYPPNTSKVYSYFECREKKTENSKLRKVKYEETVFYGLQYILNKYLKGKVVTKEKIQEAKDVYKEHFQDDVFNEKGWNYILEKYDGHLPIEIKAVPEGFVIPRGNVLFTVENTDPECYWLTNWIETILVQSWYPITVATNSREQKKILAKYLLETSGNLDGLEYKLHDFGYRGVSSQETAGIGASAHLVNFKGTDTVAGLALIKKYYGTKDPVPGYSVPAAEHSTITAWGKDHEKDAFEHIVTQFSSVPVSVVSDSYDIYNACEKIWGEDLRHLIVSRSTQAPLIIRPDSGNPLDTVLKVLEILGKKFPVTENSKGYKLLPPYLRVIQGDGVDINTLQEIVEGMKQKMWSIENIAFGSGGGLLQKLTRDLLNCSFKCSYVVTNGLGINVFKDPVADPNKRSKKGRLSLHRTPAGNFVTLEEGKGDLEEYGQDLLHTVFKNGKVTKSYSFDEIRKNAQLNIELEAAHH

For `O=C(/C=C/c1cccnc1)Nc1ccc(S(=O)(=O)c2ccc(Cl)cc2)cc1` [(2E)-N-{4-[(4-chlorobenzene)sulfonyl]phenyl}-3-(pyridin-3-yl)prop-2-enamide], the results for the IC50 in test [1] and in test [2] were 43.5 nM and 100 to 1000 nM, respectively.

As to `Cc1cc(F)cc(S(=O)(=O)c2ccc(NC(=O)/C=C/c3cccnc3)cc2)c1` [(2E)-N-{4-[(3-fluoro-5-methylbenzene)sulfonyl]phenyl}-3-(pyridin-3-yl)prop-2-enamide], the IC50 stood at 17.5 nM in test [1] and 108 nM in test [2].

On to `O=C(/C=C/c1cccnc1)Nc1ccc(S(=O)(=O)c2cccc3c2oc2ccccc23)cc1` [(2E)-N-(4-{8-oxatricyclo[7.4.0.0^2,^7]trideca-1(13),2,4,6,9,11-hexaene-6-sulfonyl}phenyl)-3-(pyridin-3-yl)prop-2-enamide], for which the IC50 was 3.5 nM in test [1] and 7.3 nM in test [2].

`O=C(/C=C/c1cccnc1)Nc1ccc(S(=O)(=O)c2ccc(N3CCOCC3)cc2)cc1` [(2E)-N-(4-{[4-(morpholin-4-yl)benzene]sulfonyl}phenyl)-3-(pyridin-3-yl)prop-2-enamide]: the results for the IC50 in test [1] and in test [2] were 24.8 nM and 55.3 nM, respectively.

`COCc1cccc(S(=O)(=O)c2ccc(NC(=O)/C=C/c3cccnc3)cc2)c1` [(2E)-N-(4-{[3-(methoxymethyl)benzene]sulfonyl}phenyl)-3-(pyridin-3-yl)prop-2-enamide]: the results for the IC50 in test [1] and in test [2] were 7.7 nM and 78 nM, respectively.

Take `CN(C)c1ncc(S(=O)(=O)c2ccc(NC(=O)/C=C/c3cccnc3)cc2)cn1` [(2E)-N-{4-[2-(dimethylamino)pyrimidine-5-sulfonyl]phenyl}-3-(pyridin-3-yl)prop-2-enamide]: the IC50 in test [1] came out at 7.9 nM; in test [2], 73.1 nM.

Regarding `CCOc1ccc(S(=O)(=O)c2ccc(NC(=O)/C=C/c3cccnc3)cc2)cc1F` [(2E)-N-{4-[(4-ethoxy-3-fluorobenzene)sulfonyl]phenyl}-3-(pyridin-3-yl)prop-2-enamide], the IC50 amounted to 34.1 nM in test [1] and 175 nM in test [2].

For the compound `O=C(/C=C/c1cccnc1)Nc1ccc(S(=O)(=O)c2cncc3ccccc23)cc1` [(2E)-N-[4-(isoquinoline-4-sulfonyl)phenyl]-3-(pyridin-3-yl)prop-2-enamide], the values for the 50% inhibitory concentration (IC50) in test [1] and in test [2] were 2.45 nM and 21.7 nM, respectively.

As to `COc1cc(F)cc(S(=O)(=O)c2ccc(NC(=O)/C=C/c3cccnc3)cc2)c1` [(2E)-N-{4-[(3-fluoro-5-methoxybenzene)sulfonyl]phenyl}-3-(pyridin-3-yl)prop-2-enamide], the IC50 in test [1] was 3.2 nM; in test [2], 68.1 nM.

Take `O=C(/C=C/c1cccnc1)NCc1ccc(S(=O)(=O)c2ccccc2)cc1` [(2E)-N-{[4-(benzenesulfonyl)phenyl]methyl}-3-(pyridin-3-yl)prop-2-enamide]: the IC50 is 3 nM in test [1] and 243 nM in test [2].

Take `O=C(/C=C/c1cccnc1)Nc1ccc(S(=O)(=O)c2cc(OC(F)(F)F)ccc2Cl)cc1` [(2E)-N-(4-{[2-chloro-5-(trifluoromethoxy)benzene]sulfonyl}phenyl)-3-(pyridin-3-yl)prop-2-enamide]: the values for the IC50 in test [1] and in test [2] were 21 nM and 100 to 1000 nM, respectively.

Take `CCOCc1ccc(S(=O)(=O)c2ccc(NC(=O)/C=C/c3cccnc3)cc2)cc1` [(2E)-N-(4-{[4-(ethoxymethyl)benzene]sulfonyl}phenyl)-3-(pyridin-3-yl)prop-2-enamide]: the IC50 in test [1] is 7.8 nM; in test [2] it was 100 to 1000 nM.

For the compound `CCCOc1cccc(S(=O)(=O)c2ccc(NC(=O)/C=C/c3cccnc3)cc2)c1` [(2E)-N-{4-[(3-propoxybenzene)sulfonyl]phenyl}-3-(pyridin-3-yl)prop-2-enamide], the IC50 in test [1] came out at 21.6 nM; in test [2] it was 86.8 nM.

For `COc1ccc(OC(F)(F)F)cc1S(=O)(=O)c1ccc(NC(=O)/C=C/c2cccnc2)cc1` [(2E)-N-(4-{[2-methoxy-5-(trifluoromethoxy)benzene]sulfonyl}phenyl)-3-(pyridin-3-yl)prop-2-enamide], the figures for the half-inhibitory concentration (IC50) in test [1] and in test [2] were 16.8 nM and 29.3 nM, respectively.

Regarding `CCOc1cc(Cl)ccc1S(=O)(=O)c1ccc(NC(=O)/C=C/c2cccnc2)cc1` [(2E)-N-{4-[(4-chloro-2-ethoxybenzene)sulfonyl]phenyl}-3-(pyridin-3-yl)prop-2-enamide], the IC50 amounted to 4.2 nM in test [1] and 9.68 nM in test [2].

`Cc1ccc(S(=O)(=O)c2ccc(NC(=O)/C=C/c3cccnc3)cc2)s1` [(2E)-N-[4-(5-methylthiophene-2-sulfonyl)phenyl]-3-(pyridin-3-yl)prop-2-enamide]: the IC50 in test [1] was 16.6 nM; in test [2], 100 to 1000 nM.

`O=C(/C=C/c1cccnc1)Nc1ccc(S(=O)(=O)c2cccc3c2OCC3)cc1` [(2E)-N-[4-(2,3-dihydro-1-benzofuran-7-sulfonyl)phenyl]-3-(pyridin-3-yl)prop-2-enamide]: the IC50 in test [1] was found to be 4.9 nM; in test [2], 36.1 nM.

Consider `Cc1ccncc1S(=O)(=O)c1ccc(NC(=O)/C=C/c2cccnc2)cc1` [(2E)-N-[4-(4-methylpyridine-3-sulfonyl)phenyl]-3-(pyridin-3-yl)prop-2-enamide], for which the figures for the IC50 in test [1] and in test [2] were 20.4 nM and 100 to 1000 nM, respectively.

In the case of `COc1ccc(C(F)(F)F)cc1S(=O)(=O)c1ccc(NC(=O)/C=C/c2cccnc2)cc1` [(2E)-N-(4-{[2-methoxy-5-(trifluoromethyl)benzene]sulfonyl}phenyl)-3-(pyridin-3-yl)prop-2-enamide], the IC50 turned out to be 24.2 nM in test [1] and 19 nM in test [2].

As to `O=C(/C=C/c1cccnc1)Nc1ccc(S(=O)(=O)c2ccccc2OC(F)(F)F)cc1` [(2E)-3-(pyridin-3-yl)-N-(4-{[2-(trifluoromethoxy)benzene]sulfonyl}phenyl)prop-2-enamide], the IC50 in test [1] turned out to be 3.6 nM; in test [2] it was 15.7 nM.

On to `COc1ccc(S(=O)(=O)c2ccc(NC(=O)/C=C/c3cccnc3)cc2)cc1OC` [(2E)-N-{4-[(3,4-dimethoxybenzene)sulfonyl]phenyl}-3-(pyridin-3-yl)prop-2-enamide], for which the IC50 in test [1] came out at 2.5 nM; in test [2] it was 43.6 nM.

Turning to `O=C(/C=C/c1cccnc1)Nc1ccc(S(=O)(=O)c2cc(Cl)ccc2Cl)cc1` [(2E)-N-{4-[(2,5-dichlorobenzene)sulfonyl]phenyl}-3-(pyridin-3-yl)prop-2-enamide], the IC50 in test [1] is 22.4 nM; in test [2] it was 100 to 1000 nM.

With `O=C(/C=C/c1cccnc1)Nc1ccc(S(=O)(=O)c2cc(Cl)cc(C(F)(F)F)c2)cc1` [(2E)-N-(4-{[3-chloro-5-(trifluoromethyl)benzene]sulfonyl}phenyl)-3-(pyridin-3-yl)prop-2-enamide], the IC50 in test [1] came to 8.1 nM; in test [2], 58.3 nM.

Turning to `CCOc1cccc(S(=O)(=O)c2ccc(NC(=O)/C=C/c3cccnc3)cc2)c1` [(2E)-N-{4-[(3-ethoxybenzene)sulfonyl]phenyl}-3-(pyridin-3-yl)prop-2-enamide], the IC50 in test [1] was 57.2 nM; in test [2], 91.9 nM.

In the case of `COc1c(C)cc(S(=O)(=O)c2ccc(NC(=O)/C=C/c3cccnc3)cc2)cc1C` [(2E)-N-{4-[(4-methoxy-3,5-dimethylbenzene)sulfonyl]phenyl}-3-(pyridin-3-yl)prop-2-enamide], the values for the IC50 in test [1] and in test [2] were 6.7 nM and 49.5 nM, respectively.

Take `CCOc1ccc(Cl)cc1S(=O)(=O)c1ccc(NC(=O)/C=C/c2cccnc2)cc1` [(2E)-N-{4-[(5-chloro-2-ethoxybenzene)sulfonyl]phenyl}-3-(pyridin-3-yl)prop-2-enamide]: the IC50 in test [1] was 12.3 nM; in test [2], 5.59 nM.
